Experimental findings from US10793568B2, “Hormone receptor modulators for treating metabolic conditions and disorders” (ARDELYX, INC., priority 2016, dated 2020) are described below.

For test [1], the target named is human Farnesoid X receptor ligand-binding domain/Gal4 DNA binding domain chimera (Homo sapiens (Human), UniProt Q96RI1). The test is described as follows: Cell-based assay of FXR activation (FXR-UAS-bla HEK 293T beta-lactamase reporter). Particulars: cellular FXR beta-lactamase reporter assay; for Emax: HEK-293T, extent of activation relative to GW4064, read-out: % Efficacy; for EC50: FXR-UAS-bla HEK 293T cells, 16 h, pEC50 = -log EC50. The method, boiled down: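 Readout is cleavage of the CCF4 FRET substrate (409 nm excitation, blue 447 nm signal) by beta-lactamase, expressed under UAS control after a Gal4–human FXR LBD chimera is activated in HEK 293T cells. Compounds were added as 3-fold dilutions for 16 h at 37 °C in 2% charcoal-stripped FBS medium. Curves were fit to a 3-parameter logistic equation to give pEC50, with % activation relative to GW4064.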
human Farnesoid X receptor ligand-binding domain/Gal4 DNA binding domain chimera, sequence (Q96RI1 262-486, change not shown): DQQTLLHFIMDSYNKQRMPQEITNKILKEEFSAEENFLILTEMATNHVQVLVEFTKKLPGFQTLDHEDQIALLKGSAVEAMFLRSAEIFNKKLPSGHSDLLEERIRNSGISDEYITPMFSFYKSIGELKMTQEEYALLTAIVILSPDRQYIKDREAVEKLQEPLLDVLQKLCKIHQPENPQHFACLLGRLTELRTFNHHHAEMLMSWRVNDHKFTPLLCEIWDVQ
human Farnesoid X receptor ligand-binding domain/Gal4 DNA binding domain chimera, sequence (P04386 1-147 partner): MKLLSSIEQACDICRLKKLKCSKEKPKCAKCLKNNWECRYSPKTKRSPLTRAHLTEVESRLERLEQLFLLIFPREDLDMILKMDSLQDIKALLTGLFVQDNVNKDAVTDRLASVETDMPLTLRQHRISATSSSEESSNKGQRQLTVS
(In a reporter assay the amount or activity of a reporter protein is the signal.)

Test [2] deals with ligand binding domain of human FXR (Homo sapiens (Human), UniProt Q96RI1). The test is described as follows: FXR ligand binding assay (LanthaScreen TR-FRET, SRC2-2 peptide recruitment). Particulars: for Emax: extent of activation relative to GW4064, read-out: % Efficacy. A general note: Time-resolved FRET reads energy transfer from a long-lived donor to a nearby acceptor.
ligand binding domain of human FXR, sequence (Q96RI1 262-486): as the sequence (Q96RI1 262-486, change not shown) above
The mark [3] stands for this setting: -log EC50, concentration required to produce 50% activation.

In general, pEC50 refers to the EC50 on a negative log10 scale, so that one unit is a factor of ten. `Cc1cc(C(=O)O)ccc1N1C[C@@H]2C[C@H]1C[C@H]2OCc1c(-c2c(Cl)cccc2Cl)noc1C1CC1` [Compound I-107, 4-((1S,4S,5R)-5-((5-cyclopropyl-3-(2,6-dichlorophenyl)isoxazol-4-yl)methoxy)-2-azabicyclo[2.2.1]heptan-2-yl)-3-methylbenzoic acid]: the Emax worked out at 102% in test [1] and 122% in test [2]. The same compound gave an EC50 in test [1] of 1 nM. Also, the pEC50 in test [2] (setting [3]) amounted to 8.6.
As for `O=C(O)c1cc(F)c2nc(N3C[C@@H]4C[C@H]3C[C@H]4OCc3c(C4CCCCC4)noc3C3CC3)sc2c1` [Compound I-21, 2-[(1S,4S,5R)-5-[(3-cyclohexyl-5-cyclopropyl-1,2-oxazol-4-yl)methoxy]-2-azabicyclo[2.2.1]heptan-2-yl]-4-fluoro-1,3-benzothiazole-6-carboxylic Acid], the Emax turned out to be 110% in test [1] and 123% in test [2]. Besides, the figures for the EC50 in test [1] and in test [2] (setting [3]) were 79.4 nM and 100 nM, respectively.
Turning to `O=C(NCCS(=O)(=O)C1CCOCC1)c1ccc(N2C[C@@H]3C[C@H]2C[C@H]3OCc2c(-c3c(Cl)cccc3Cl)noc2C2CC2)cc1F` [Compound I-172, 4-[(1S,4S,5R)-5-{[5-cyclopropyl-3-(2,6-dichlorophenyl)-1,2-oxazol-4-yl]methoxy}-2-azabicyclo[2.2.1]heptan-2-yl]-2-fluoro-N-[2-(oxane-4-sulfonyl)ethyl]benzamide], in test [1], the Emax was 110% and the EC50 is 1 nM. Besides, in test [2] (setting [3]), the pEC50 was found to be 8.4. Moreover, the Emax in test [2] was 160%.
Consider `O=C(O)c1cc(O[C@H]2CCOC2)c2nc(N3C(=O)[C@@H]4C[C@H]3C[C@H]4OCc3c(-c4c(Cl)cccc4Cl)noc3C3CC3)sc2c1` [Compound I-302, 2-((1S,4R,5R)-5-((5-cyclopropyl-3-(2,6-dichlorophenyl)isoxazol-4-yl)methoxy)-3-oxo-2-azabicyclo[2.2.1]heptan-2-yl)-4-(((S)-tetrahydrofuran-3-yl)oxy)benzo[d]thiazole-6-carboxylic acid], for which the values for the Emax in test [1] and in test [2] were 114% and 106%, respectively. In test [1], this compound gave an EC50 of 39.8 nM. The compound also gave a negative logarithm of the EC50 (pEC50) in test [2] (setting [3]) of 8.4.
Consider `O=C(O)c1ccc(N2C[C@@H]3C[C@H]2C[C@H]3OCc2c(-c3c(Cl)cccc3Cl)noc2C2CC2)cc1F` [Compound I-103, 4-[(1S,4S,5R)-5-{[5-cyclopropyl-3-(2,6-dichlorophenyl)-1,2-oxazol-4-yl]methoxy}-2-azabicyclo[2.2.1]heptan-2-yl]-2-fluorobenzoic Acid], for which, in test [1], the Emax worked out at 103% and the EC50 is 0.794 nM. Further, the pEC50 in test [2] (setting [3]) is recorded as 8.7. Also, in test [2], the Emax came out at 135%.
On to `COCC(=O)NCCCCCCCCCCS(=O)(=O)NC(=O)c1ccc(N2C[C@@H]3C[C@H]2C[C@H]3OCc2c(-c3c(Cl)cccc3Cl)noc2C2CC2)c(F)c1` [Compound I-225, N-{10-[({4-[(1S,4S,5R)-5-{[5-cyclopropyl-3-(2,6-dichlorophenyl)-1,2-oxazol-4-yl]methoxy}-2-azabicyclo[2.2.1]heptan-2-yl]-3-fluorophenyl}formamido)sulfonyl]decyl}-2-methoxyacetamide], for which the Emax in test [1] was found to be 103%; in test [2], 166%. In addition, the EC50 in test [1] was 2 nM. Further, the pEC50 in test [2] (setting [3]) is listed as 9.5.
On the same counts, the results for `O=C(O)c1ccc(N2C[C@@H]3C[C@H]2C[C@H]3OCc2c(-c3c(Cl)cccc3Cl)noc2C2CC2)c(F)c1` [Compound I-53, 4-[(1S,4S,5R)-5-[[5-cyclopropyl-3-(2,6-dichlorophenyl)-1,2-oxazol-4-yl]methoxy]-2-azabicyclo[2.2.1]heptan-2-yl]-3-fluorobenzoic acid] are 113%, 145%, 0.398 nM and 8.7.
As for `O=C(NS(=O)(=O)CCC1CCOC1)c1ccc(N2C(=O)[C@@H]3C[C@H]2C[C@H]3OCc2c(-c3c(Cl)cccc3Cl)noc2C2CC2)cc1` (stereo partly drawn) [Compound I-342, 4-((1S,4R,5R)-5-((5-cyclopropyl-3-(2,6-dichlorophenyl)isoxazol-4-yl)methoxy)-3-oxo-2-azabicyclo[2.2.1]heptan-2-yl)-N-((2-(tetrahydrofuran-3-yl)ethyl)sulfonyl)benzamide], in test [1], the Emax is 125% and the EC50 was 31.6 nM. Also, in test [2] (setting [3]), the pEC50 was 8.6. Besides, in test [2], the Emax was 139%.
Consider `O=C(NS(=O)(=O)C1CC1)c1ccc(N2C[C@@H]3C[C@H]2C[C@H]3OCc2c(-c3c(Cl)cccc3Cl)noc2C2(F)CC2)cc1` [Compound I-196, N-(cyclopropylsulfonyl)-4-((1S,4S,5R)-5-((3-(2,6-dichlorophenyl)-5-(1-fluorocyclopropyl)isoxazol-4-yl)methoxy)-2-azabicyclo[2.2.1]heptan-2-yl)benzamide], for which, in test [1], the Emax amounted to 110% and the EC50 is 0.794 nM. Moreover, in test [2] (setting [3]), the negative-log EC50 (pEC50) was determined as 8.5. The Emax in test [2] is 154%.
Take `COc1ccccc1-c1noc(C2CC2)c1CO[C@@H]1C[C@@H]2C[C@H]1CN2c1nc2c(F)cc(C(=O)O)cc2s1` [Compound I-288, 2-((1S,4S,5R)-5-((5-cyclopropyl-3-(2-methoxyphenyl)isoxazol-4-yl)methoxy)-2-azabicyclo[2.2.1]heptan-2-yl)-4-fluorobenzo[d]thiazole-6-carboxylic acid]: in test [1], the Emax worked out at 112% and the EC50 was 3.98 nM. In addition, the pEC50 in test [2] (setting [3]) was determined as 8. In test [2], the Emax stood at 188%.
For `O=C(O)CCc1ccc(N2C[C@@H]3C[C@H]2C[C@H]3OCc2c(-c3c(Cl)cccc3Cl)noc2C2CC2)c(F)c1` [Compound I-154, 3-{4-[(1S,4S,5R)-5-{[5-cyclopropyl-3-(2,6-dichlorophenyl)-1,2-oxazol-4-yl]methoxy}-2-azabicyclo[2.2.1]heptan-2-yl]-3-fluorophenyl}propanoic Acid], in that order: 105%, 0.501 nM, 8.6 and 158%.
On the same counts, the results for `Cc1cccc(Cl)c1-c1noc(C2CC2)c1CO[C@@H]1C[C@@H]2C[C@H]1CN2c1ccc(CCC(=O)NS(=O)(=O)C2CC2)cc1F` [Compound I-242, 3-(4-((1S,4S,5R)-5-((3-(2-chloro-6-methylphenyl)-5-cyclopropylisoxazol-4-yl)methoxy)-2-azabicyclo[2.2.1]heptan-2-yl)-3-fluorophenyl)-N-(cyclopropylsulfonyl)propanamide] are 97%, 10 nM, 8.2 and 182%.
Turning to `O=C(O)CNC(=O)c1ccc(N2C[C@@H]3C[C@H]2C[C@H]3OCc2c(-c3c(Cl)cccc3Cl)noc2C2CC2)cc1` [Compound I-165, 2-({4-[(1S,4S,5R)-5-{[5-cyclopropyl-3-(2,6-dichlorophenyl)-1,2-oxazol-4-yl]methoxy}-2-azabicyclo[2.2.1]heptan-2-yl]phenyl}formamido)acetic Acid], in test [1], the Emax was found to be 107% and the EC50 is 20 nM. Also, the negative logarithm of the EC50 (pEC50) in test [2] (setting [3]) was 8.4. In test [2], the Emax came out at 140%.
In the case of `N#Cc1cc(N2C[C@@H]3C[C@H]2C[C@H]3OCc2c(-c3c(Cl)cccc3Cl)noc2C2CC2)ccc1C(=O)O` [Compound I-101, 2-Cyano-4-[(1S,4S,5R)-5-{[5-cyclopropyl-3-(2,6-dichlorophenyl)-1,2-oxazol-4-yl]methoxy}-2-azabicyclo[2.2.1]heptan-2-yl]benzoic Acid], the Emax came to 113% in test [1] and 137% in test [2]. In addition, the EC50 in test [1] was 1 nM. The pEC50 in test [2] (setting [3]) is 9.8.
Consider `O=C(NS(=O)(=O)C1CC1)c1ccc(N2C[C@@H]3C[C@H]2C[C@H]3OCc2c(C3CCC4(CC3)CC4)noc2C2CC2)c(F)c1` [Compound I-229, 4-((1S,4S,5R)-5-((5-cyclopropyl-3-(spiro[2.5]octan-6-yl)isoxazol-4-yl)methoxy)-2-azabicyclo[2.2.1]heptan-2-yl)-N-(cyclopropylsulfonyl)-3-fluorobenzamide], for which, in test [1], the Emax is 101% and the EC50 is 39.8 nM. The compound further had a pEC50 in test [2] (setting [3]) of 7.4. Also, in test [2], the Emax was found to be 150%.
On the same counts, the results for `O=C(O)c1cc([C@@H]2CCOC2)c2nc(N3C[C@@H]4C[C@H]3C[C@H]4OCc3c(C4CCC5(CC4)CC5)noc3C3CC3)sc2c1` [Compound I-281, 2-((1S,4S,5R)-5-((5-cyclopropyl-3-(spiro[2.5]octan-6-yl)isoxazol-4-yl)methoxy)-2-azabicyclo[2.2.1]heptan-2-yl)-4-((S)-tetrahydrofuran-3-yl)benzo[d]thiazole-6-carboxylic acid] are 105%, 15.8 nM, 7.4 and 104%.
Consider `O=C(NS(=O)(=O)C1CC1)c1ccc(N2C[C@@H]3C[C@H]2C[C@H]3OCc2c(-c3c(Cl)cccc3Cl)noc2C2CC2)c(F)c1` [Compound I-62, N-(cyclopropanesulfonyl)-4-[(1S,4S,5R)-5-{[5-cyclopropyl-3-(2,6-dichlorophenyl)-1,2-oxazol-4-yl]methoxy}-2-azabicyclo[2.2.1]heptan-2-yl]-3-fluorobenzamide], for which, in test [1], the Emax came to 112% and the EC50 is 0.158 nM. The compound also registered a pEC50 in test [2] (setting [3]) of 7.9. Further, in test [2], the Emax amounted to 188%.
